In US9339488B2, “Anti-cervical cancer compound and method of use thereof” (Hong Kong Baptist University, priority 2013, dated 2016):

Assays:
HeLa LC3-GFP cells = assay: Fluorescence microscopy of GFP-LC3 puncta formation (autophagy); format: cell-based, human; conditions: 1-20 μM for 24 hours, 10 μM for 6, 12 and 24 hours, FIG. 1, 2
Experimental: LC3, a known autophagy indicator, is used to show Griffipavixanthone's ability to induce autophagy in cancer cells and thus provide anti-cancer property. 1×10^5/ml HeLa LC3-GFP cells are seeded in a 35 mm×10 mm culture dish and preincubated for 24 hours before treatment with griffipavixanthone. HeLa LC3-GFP cells are treated with vehicle (control), 1 μM, 5 μM, 10 μM and 20 μM for 24 hours. After treatment of griffipavixanthone, the medium is removed from the dish and 4% methyl aldehyde with 0.3% triton-100 is added for fastening and permeation. The staining solution DAPI is added. Fluorescence of the bound dyes is analyzed using a laser scanning confocal microscope (FV10i, OlympusCorporation, Japan). […] Griffipavixanthone induces autophagy in cervical cancer cells at concentration and time dependent manner.

HeLa cells [1] = assay: MTT cytotoxic assay; format: cell-based; conditions: 0.1-20 μM, 72 hours; FIG. 3
Experimental: Human cervical cancer cell lines HeLa are maintained in DMEM (Invitrogen) supplemented with 10% newborn calf serum (Gibco, Life technologies Corporation, New Zealand), 1% penicillin/streptomycin (Invitrogen). Cells are maintained in a humidified atmosphere containing 5% CO2 at 37° C.
4×10^4/ml HeLa cells are seeded in a 96-well plate and preincubated for 24 hours before treatment with Griffipavixanthone (0.1-20 μM). After 72 hours, 10 μl of MTT solution (5 mg/ml) (Sigma Chemical Company, St. Louis, Mo., USA) are added to each well for 4 hours. The resulting crystals are dissolved in DMSO. The controls are native cells treated with medium only. The spectrophotometric absorbance at 570 nm is measured using a microplate reader (Synergy HT, Bio-Tek Instruments Inc., Winooski, Vt., USA). The percentage cytotoxicity is calculated by the formula: Percentage cytotoxicity (cell death)=[1-(absorbance of experimental wells/absorbance of control wells)]×100%.

HeLa cells [2] = assay: Flow cytometer (FACS, PI staining) analysis of cell death; format: cell-based, human; conditions: 1 and 10 μM, 24 hours; DMEM vs EBSS (serum-free medium); FIG. 4
Experimental: 3×10^5/ml HeLa cells are treated with Griffipavixanthone (1 and 10 μM) for 24 hours. Cells are trypsinized and fixed in ice-cold 100% methanol overnight at 4° C. Cells are washed, incubated with the staining solution (100 μg/ml RNase A and 20 μg/ml PI in Phosphate Buffer Saline (PBS) with 5% NBCS) for 60 minutes, and subjected to fluorescence activated cell sorting (FACS) analysis on a FACScan flowcytometer (BD PharMingen, USA). Data are analyzed using the FlowJo software.

HeLa cells [3] = assay: Western blot analysis of LC3-I, LC3-II and p62 expression; format: cell-based, human; conditions: 0, 1 and 5 μM, 24 hours; FIG. 5
Experimental: 6×10^5/ml HeLa cells are treated with Griffipavixanthone (0, 1 and 5 μM) for 24 hours. Cells are collected and cleavaged by RIPA and PMSF. Proteins are extracted and separated by 12% gel SDS-PAGE, and then are transferred to PVDF. Membranes are blocked with 5% nonfat dry milk in TBST for 0.5 hour. They are incubated and exposed with the respective primary antibodies, testing the content change of protein. The primary antibodies used to detect proteins in autophagy pathway: LC3 (16, 18 kD), p62 (62 kD) and GAPDH (37 kD).

[4] = test system: HeLa cells xenograft tumor; assay: Inhibition of tumor growth in HeLa xenograft nude mouse model; format: in vivo, nude mice; conditions: intratumor injection 40 ng/kg/day or 80 ng/kg/day once every other day for 18 days; FIG. 6
Experimental: A total of 2×10^6 HeLa cells suspended in 100 μL of saline are inoculated s.c. into the right flank of 4-week-old male nude mice. Drug injections are made once the tumors reach an average volume of about 100 mm^3. Mice are divided randomly into two groups and subjected to intratumor injection of vehicle or Griffipavixanthone (40 ng/kg/day or 80 ng/kg/day) once every other day for 18 days. A total 2 μg/mouse and 4 μg/mouse are given to the two groups of mice in the 18 days treatment. Tumor volume is measured by caliper measurements (V=L×W^2/2). For intratumor injection, Griffipavixanthone is prepared in 0.5% dimethyl sulfoxide, 0.5% tween 80, and 99% PBS. […] The dosage of administered Griffipavixanthone is translated to a human dosage of 3.2 ng/kg/day to 6.4 ng/kg/day with the equation: human equivalent dose=animal dose×animal Km/human Km, where mouse Km factor is 3 and human Km factor is 37 as disclosed in Reagan-Shaw, S., Nihal, M. and Ahmad N., “Dose translation from animal to human studies revisited”, The FASEB Journal, Life Science Forum, disclosure of which is incorporated herein by reference in its entity.

[5] = test system: leukemia cells, lung cancer cells and fibrosarcoma cells; conditions: Tetrahedron Letters 1998, 39: 9103-9106; cited from earlier work

In the case of `CC1=CC2c3c(c(O)c(O)c4oc5cc(O)cc(O)c5c(=O)c34)C(c3cc(O)c(O)c4oc5cc(O)cc(O)c5c(=O)c34)C2C(C)(C)C1` (stereo not drawn) [Griffipavixanthone], the “GFP-LC3 puncta formation (percentage of GFP-LC3 positive cells)” value (HeLa LC3-GFP cells) is reported as “increases GFP-LC3 puncta formation at concentration and time dependent manner”, the “HeLa cell viability / cytotoxicity (MTT)” value (HeLa cells [1]) is reported as “inhibit HeLa cell lines at concentration dependent manner” and the “HeLa cell death (FACS)” value (HeLa cells [2]) is reported as “induces HeLa cell death significantly in serum-free medium at concentration dependent manner”. For the same compound, the “Autophagosome accumulation (LC3-I, LC3-II, p62 immunoblot)” value (HeLa cells [3]) was “increases autophagosome accumulation and induces autophagy”, the “Tumor growth (tumor volume)” value [4] was “growth of tumor is inhibited” and the In vitro cytotoxicity [5] was “high in vitro cytotoxity”.
